Reference: patent US5589568A (priority 1994, dated 1996)
Where two headings read alike, the source gives them in different places. Where a SMILES comes first, the peptide text is derived from it. Where no end group is shown, it is not given here. The star is where a group is joined. Dodecyl = CCCCCCCCCCCC*; X1 = CCCCCCCCCCCCCCCC*

Experiments:
Go = target: T1, Go (Bos taurus, UniProt P08239); assay: steady state GTPase activity of Go in phospholipid vesicles; format: biochemical, bovine; conditions: for Turnover number Go 10 μg/ml: 10 μg/ml amine; for Turnover number Go 10 μg/ml / Turnover number Go 100 μg/ml / GTPase Go 10 μM / GTPase Go 100 μM: 15 min at 20° C.; for Turnover number Go 10 μg/ml / GTPase Go 10 μM / GTPase Go 100 μM: PE/PC/PS vesicles; for Turnover number Go 100 μg/ml: 100 μg/ml amine; for Go ef. (apparent efficacy, maximum turnover number of GTPase activity): Table VI, receptor-based peptides; for Goo ef. (apparent efficacy, maximum turnover number of GTPase activity): Table IV; for GTPase Go 10 μM: 10 μM peptide; for GTPase Go 100 μM: 100 μM peptide; for ability to activate Gi and Go (in words): both Gi and Go, gramicidin S and dynorphin at 10 μM; for stimulation of GTPase activity: at higher concentrations, G protein not named in the sentence (Gi and Go tested)
T1 construct: proteins were extracted from bovine cerebral cortical membranes; from tissue; host or cells: bovine brain (cerebral cortical membranes)
From the text: (§1) G proteins were reconstituted into phospholipid vesicles composed of dioleoyl-PC/bovine brain PS/1-palmitoyl,2-oleoyl-PE (3:4:3) as reported previously by Higashijima et al., 1988, incorporated herein by reference.

Gi = assay: steady state GTPase activity of Gi in phospholipid vesicles; format: biochemical, rabbit; conditions: for Turnover number Gi 10 μg/ml: 10 μg/ml amine; for Turnover number Gi 10 μg/ml / Turnover number Gi 100 μg/ml / GTPase Gi 10 μM / GTPase Gi 100 μM: 30 min at 30° C.; for Turnover number Gi 100 μg/ml: 100 μg/ml amine; for GTPase Gi 10 μM: 10 μM peptide; for GTPase Gi 10 μM / GTPase Gi 100 μM: PE/PC/PS vesicles; for GTPase Gi 100 μM: 100 μM peptide;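 for all read-outs here: Steady-state GTP hydrolysis by Gi measured in a detergent-free buffer containing 1.1 mM MgSO4 plus the specified guanine nucleotide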
Method: as §1
The concentration of free Mg^2+ in assay medium that contains 5 mM EDTA and no added Mg^2+ is estimated to be 0.1-0.2 nM according to Brandt et al., 1988 and 1983.

Gs = Gs (Homo sapiens, UniProt P63092); assay: steady state GTPase activity of Gs; format: biochemical
Method: Methods for the assay of steady state GTP hydrolysis and GTPγS binding have been described previously by Higashijima, 1987, and Ferguson, 1986, and incorporated herein by reference. Unless noted otherwise, assays of steady state GTP hydrolysis and of the binding and dissociation of guanine nucleotides were carried out in the buffer described previously, but without detergent and with 1.1 mM MgSO4 and the nucleotide specified in the text. When necessary, the concentration of free Mg^2+ was adjusted using EDTA buffers as described previously by Higashijima, 1987, and incorporated herein by reference.
The data set forth in the following tables represent data generated by the inventors employing the steady state GTP hydrolysis, expressed as molar turnover numbers, are described herein under the "Assay" section of the Experimental Procedures in Example 1. The data has been classified according to the criteria outlined below and the effects of each peptide and modified variant on Go, Gi, and Gs have been tabulated. Table III below sets forth data generated for various mastoparan analogues designed by the inventors, in comparison with the various naturally-occurring mastoparans (e.g., MP, MP-A and MP-T). Table IV sets forth similar data generated for various receptor-based peptides designed by the inventors based on a consideration of various G-protein linked receptors.
Apparent affinity (af.) and apparent efficacy (ef.) were estimated by EC50 and maximum turnover number of GTPase activity.

[1] = Table VI, receptor-based peptides
[2] = Table VI, receptor-based peptides, read-out: Gi af. (apparent affinity, estimated by EC50 of GTPase activity)
[3] = Table IV, read-out: G1 af. (apparent affinity, estimated by EC50 of GTPase activity)

Gs, sequence (P63092 whole entry): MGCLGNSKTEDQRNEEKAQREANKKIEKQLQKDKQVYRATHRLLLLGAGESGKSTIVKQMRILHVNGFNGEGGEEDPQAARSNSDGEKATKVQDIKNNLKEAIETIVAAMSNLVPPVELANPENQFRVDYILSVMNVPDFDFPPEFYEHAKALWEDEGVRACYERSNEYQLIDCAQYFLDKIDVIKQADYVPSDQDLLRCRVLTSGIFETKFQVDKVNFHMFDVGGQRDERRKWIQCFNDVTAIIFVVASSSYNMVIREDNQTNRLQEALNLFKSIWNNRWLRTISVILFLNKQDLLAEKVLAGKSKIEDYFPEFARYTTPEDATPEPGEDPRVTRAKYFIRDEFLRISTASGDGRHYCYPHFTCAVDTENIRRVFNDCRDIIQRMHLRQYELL
T1 sequence (P08239 2-354 limits assumed): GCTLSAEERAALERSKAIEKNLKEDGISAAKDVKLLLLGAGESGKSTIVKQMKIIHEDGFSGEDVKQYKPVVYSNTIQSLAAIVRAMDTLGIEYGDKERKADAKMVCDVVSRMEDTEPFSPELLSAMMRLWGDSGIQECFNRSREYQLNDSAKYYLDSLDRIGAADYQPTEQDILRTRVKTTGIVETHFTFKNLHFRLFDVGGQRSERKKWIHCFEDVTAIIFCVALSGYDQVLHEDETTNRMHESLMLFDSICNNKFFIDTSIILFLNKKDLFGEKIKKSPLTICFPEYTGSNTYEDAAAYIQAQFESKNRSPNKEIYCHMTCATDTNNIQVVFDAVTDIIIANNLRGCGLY
T1 sequence (P62871 2-340 partner limits assumed): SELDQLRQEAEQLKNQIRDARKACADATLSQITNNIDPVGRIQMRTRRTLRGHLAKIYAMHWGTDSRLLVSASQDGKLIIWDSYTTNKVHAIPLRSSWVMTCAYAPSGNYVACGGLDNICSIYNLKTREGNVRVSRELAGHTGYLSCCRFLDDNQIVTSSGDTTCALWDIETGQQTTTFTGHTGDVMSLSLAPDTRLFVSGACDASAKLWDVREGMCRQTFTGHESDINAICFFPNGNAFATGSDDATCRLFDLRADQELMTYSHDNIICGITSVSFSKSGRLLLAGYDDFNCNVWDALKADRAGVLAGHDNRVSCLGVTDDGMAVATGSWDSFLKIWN
T1 sequence (P63212 2-68 partner limits assumed): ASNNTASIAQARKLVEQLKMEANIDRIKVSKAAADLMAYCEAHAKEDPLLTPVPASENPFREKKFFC

CCCCCCCCCCCCN [C12 NH3 Cl, dodecylamine]
Turnover number Go 10 μg/ml (Go): 0.18 min⁻¹ | Turnover number Go 100 μg/ml (Go): 0.61 min⁻¹ | Turnover number Gi 10 μg/ml (Gi): 0.06 min⁻¹ | Turnover number Gi 100 μg/ml (Gi): 0.31 min⁻¹ | stimulation of Gi by amines (in words) (Gi; Table III): stimulated Gi significantly

CCCCCCCCCCCCSC[C@H](N)C(=O)N1CCC[C@H]1C(=O)N[C@@H](Cc1ccccc1)C(=O)N[C@@H](CCCNC(=N)N)C(=O)N[C@@H](Cc1ccc(O)cc1)C(=O)N[C@@H](CCC(N)=O)C(=O)N[C@@H](CO)C(=O)N[C@@H](CC(C)C)C(=O)N[C@@H](CCSC)C(=O)N[C@H](C(=O)N[C@@H](CCCNC(=N)N)C(=O)N[C@@H](C)C(=O)N[C@@H](CCCNC(=N)N)C(=O)N[C@@H](C)C(=O)N[C@@H](CCCCN)C(=O)N[C@H](C(=O)N[C@H](C(N)=O)[C@@H](C)CC)C(C)C)[C@@H](C)O [C12-ER39] (H-C(Dodecyl)PFRYQSLMTRARAKVI-NH2; N-terminus assumed)
Go ef. (apparent efficacy, maximum turnover number of GTPase activity) (Go): G (Good (G): 5-10 fold) | Gi ef. (apparent efficacy, maximum turnover number of GTPase activity) (Gi; [1]): G (Good (G): 5-10 fold) | EC50 (Gi; [2]): 3 to 10 µM | Gs ef. (apparent efficacy, maximum turnover number of GTPase activity) (Gs; [1]): F (Fair (F): 2-5 fold)

CCCCCCCCCCCCCCCCSC[C@H](NC(=O)[C@H](CC(C)C)NC(=O)[C@H](C)NC(=O)[C@H](CCCCN)NC(=O)[C@H](C)NC(=O)[C@H](CC(C)C)NC(=O)[C@H](C)NC(=O)[C@H](C)NC(=O)[C@H](CC(C)C)NC(=O)[C@H](C)NC(=O)[C@H](CCCCN)NC(=O)[C@H](Cc1ccc(O)cc1)NC(=O)[C@H](CC(N)=O)NC(=O)[C@@H](N)[C@@H](C)CC)C(N)=O [C16-ER17] (H-INYKALAALAKALC(X1)-NH2; N-terminus assumed)
Goo ef. (apparent efficacy, maximum turnover number of GTPase activity) (Go): E (Excellent (E): 30-10 fold) | G1 ef. (apparent efficacy, maximum turnover number of GTPase activity) (Gi; Table IV): E (Excellent (E): 30-10 fold) | EC50 (Gi; [3]): < 3 µM | Gs ef. (apparent efficacy, maximum turnover number of GTPase activity) (Gs; Table IV): F (Fair (F): 2-5 fold)

CCCCCCCCCCCCCCCCCC[N+](C)(C)C.[Cl-] [C18 Me3 NCl, reference compound]
Turnover number Go 10 μg/ml (Go): 0.61 min⁻¹ | Turnover number Go 100 μg/ml (Go): < 0.01 min⁻¹ | Turnover number Gi 10 μg/ml (Gi): 0.04 min⁻¹ | Turnover number Gi 100 μg/ml (Gi): < 0.01 min⁻¹

CC[C@H](C)[C@H](NC(=O)[C@H](CCCNC(=N)N)NC(=O)[C@H](Cc1ccc(O)cc1)NC(=O)[C@H](CC(C)C)NC(=O)[C@H](CC(C)C)NC(=O)[C@H](CC(C)C)NC(=O)[C@@H](NC(=O)[C@H](CC(C)C)NC(=O)[C@@H](NC(=O)[C@H](CC(C)C)NC(=O)[C@H](CC(C)C)NC(=O)[C@@H](NC(=O)[C@H](C)NC(=O)[C@@H](NC(=O)[C@H](CC(C)C)NC(C)=O)[C@@H](C)O)C(C)C)[C@@H](C)O)[C@@H](C)O)C(=O)N[C@@H](CC(N)=O)C(=O)N[C@@H](CC(C)C)C(=O)N[C@@H](CCCCN)C(=O)N[C@@H](C)C(=O)N[C@@H](CC(C)C)C(=O)N[C@@H](C)C(=O)N[C@@H](C)C(=O)N[C@@H](CC(C)C)C(=O)N[C@@H](C)C(=O)N[C@@H](CCCCN)C(=O)N[C@@H](C)C(=O)N[C@@H](CC(C)C)C(=O)N[C@@H](CC(C)C)C(N)=O [ER26]
Goo ef. (apparent efficacy, maximum turnover number of GTPase activity) (Go): F (Fair (F): 2-5 fold) | G1 ef. (apparent efficacy, maximum turnover number of GTPase activity) (Gi; Table IV): G (Good (G): 5-10 fold) | EC50 (Gi; [3]): 3 to 10 µM | Gs ef. (apparent efficacy, maximum turnover number of GTPase activity) (Gs; Table IV): F (Fair (F): 2-5 fold)

CC[C@H](C)[C@H](NC(=O)CN)C(=O)NCC(=O)N[C@@H](C)C(=O)N[C@H](C(=O)N[C@@H](CC(C)C)C(=O)N[C@@H](CCCCN)C(=O)N[C@H](C(=O)N[C@@H](CC(C)C)C(=O)N[C@H](C(=O)N[C@H](C(=O)NCC(=O)N[C@@H](CC(C)C)C(=O)N1CCC[C@H]1C(=O)N[C@@H](C)C(=O)N[C@@H](CC(C)C)C(=O)N[C@H](C(=O)N[C@@H](CO)C(=O)N[C@@H](Cc1c[nH]c2ccccc12)C(=O)N[C@H](C(=O)N[C@@H](CCCCN)C(=O)N[C@@H](CCCNC(=N)N)C(=O)N[C@@H](CCCCN)C(=O)N[C@@H](CCCNC(=N)N)C(=O)N[C@@H](CCC(N)=O)C(=O)N[C@@H](CCC(N)=O)C(N)=O)[C@@H](C)CC)[C@@H](C)CC)[C@@H](C)O)[C@@H](C)O)C(C)C)C(C)C [Melittin, reference compound]
GTPase Go 10 μM (Go): 0.63 min⁻¹ | GTPase Go 100 μM (Go): 0.56 min⁻¹ | ability to activate Gi and Go (in words) (Go; GTPase): potency and efficacy roughly equivalent to that of mastoparan | GTPase Gi 10 μM (Gi): 0,37 min^-1 | GTPase Gi 100 μM (Gi): 0.40 min⁻¹

NC(=O)[C@@H]1CCCN1C(=O)[C@H](Cc1cnc[nH]1)NC(=O)[C@@H]1CCC(=O)N1 [TRH, thyrotropin releasing hormone, reference compound]
GTPase Go 100 μM (Go): 0.06 min⁻¹ | GTPase Gi 100 μM (Gi): 0.03 min⁻¹

Ac-WKKLLKLLKKLLKL-NH2 [CBP6, reference compound]
GTPase Go 10 μM (Go): 0.76 min⁻¹ | GTPase Go 100 μM (Go): 0.38 min⁻¹ | ability to activate Gi and Go (in words) (Go; GTPase): quite active | GTPase Gi 10 μM (Gi): 0.51 min⁻¹ | GTPase Gi 100 μM (Gi): 0.06 min⁻¹

Angiotensin II (DRVYIHPF; Angiotensin-2; UniProt P01019 25-32, looked up) [reference compound]
GTPase Go 100 μM (Go): 0.31 min⁻¹ | stimulation of GTPase activity (Go): more than 3 fold | GTPase Gi 100 μM (Gi): 0.23 min⁻¹

CPFRYQSLNTRARAKVI-NH2 [ER39]
Go ef. (apparent efficacy, maximum turnover number of GTPase activity) (Go): F (Fair (F): 2-5 fold) | Gi ef. (apparent efficacy, maximum turnover number of GTPase activity) (Gi; [1]): P (Poor (P): less than 2 fold) | EC50 (Gi; [2]): > 100 µM | Gs ef. (apparent efficacy, maximum turnover number of GTPase activity) (Gs; [1]): F (Fair (F): 2-5 fold)

Calcitonin [reference compound]
GTPase Go 100 μM (Go): 0.09 min⁻¹ | GTPase Gi 100 μM (Gi): 0.01 min⁻¹

Dynorphin [reference compound]
GTPase Go 10 μM (Go): 0.13 min⁻¹ | GTPase Go 100 μM (Go): 0.33 min⁻¹ | ability to activate Gi and Go (in words) (Go; GTPase): somewhat stimulatory | GTPase Gi 100 μM (Gi): 0.10 min⁻¹

Gramicidin S [reference compound]
GTPase Go 10 μM (Go): 0.17 min⁻¹ | GTPase Go 100 μM (Go): 0.47 min⁻¹ | ability to activate Gi and Go (in words) (Go; GTPase): somewhat stimulatory | GTPase Gi 10 μM (Gi): 0.13 min⁻¹ | GTPase Gi 100 μM (Gi): 0.31 min⁻¹

Melanostatin [reference compound]
GTPase Go 100 μM (Go): 0.05 min⁻¹ | GTPase Gi 100 μM (Gi): 0.03 min⁻¹

RPPGFSPFR [Bradykinin, reference compound]
GTPase Go 100 μM (Go): 0.05 min⁻¹ | GTPase Gi 100 μM (Gi): 0.03 min⁻¹

Substance P [reference compound]
GTPase Go 100 μM (Go): 0.25 min⁻¹ | stimulation of Go (Go; GTPase, Table II): more than 4 fold | GTPase Gi 100 μM (Gi): 0.09 min⁻¹ | stimulation of Gi (Gi; GTPase, Table II): more than 4 fold

[D-Ala^2 ]Leu-enkephalin [DALE, reference compound]
GTPase Go 100 μM (Go): 0.06 min⁻¹ | GTPase Gi 100 μM (Gi): 0.02 min⁻¹

luteinizing hormone releasing hormone [LHRH, reference compound]
GTPase Go 100 μM (Go): 0.04 min⁻¹ | GTPase Gi 100 μM (Gi): 0.03 min⁻¹

α-Mating factor [reference compound]
GTPase Go 100 μM (Go): 0.19 min⁻¹ | stimulation of GTPase activity (Go): more than 3 fold | GTPase Gi 100 μM (Gi): 0.05 min⁻¹
